This note sets out measurements from patent US8293729B2 (Boehringer Ingelheim International GmbH, priority 2009, dated 2012).

For one assay, the target named is T1, human GPR119 receptor (Homo sapiens, UniProt Q8TDV5, S329A/T327A).
T1 construct: N-terminal leader […]; expressed in transfected cells
T1 sequence (Q8TDV5 with tags, fused parts or gaps T327A/S329A): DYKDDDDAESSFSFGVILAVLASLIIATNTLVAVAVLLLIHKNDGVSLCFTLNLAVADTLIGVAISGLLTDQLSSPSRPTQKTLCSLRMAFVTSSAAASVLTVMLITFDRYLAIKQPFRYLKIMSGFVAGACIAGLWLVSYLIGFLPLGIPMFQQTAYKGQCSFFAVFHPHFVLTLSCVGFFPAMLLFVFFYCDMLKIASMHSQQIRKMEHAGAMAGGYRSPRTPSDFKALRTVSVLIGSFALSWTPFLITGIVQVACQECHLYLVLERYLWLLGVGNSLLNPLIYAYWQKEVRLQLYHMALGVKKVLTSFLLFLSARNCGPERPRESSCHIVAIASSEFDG
In words: cAMP assay (LANCE cAMP-384) in HEK293 cells stably expressing mutant human GPR119 receptor. To be noted: HEK293, 20 min; single concentration 10 μM; given where no EC50 value could be determined; read-out: % stimulation at 10 μM. Format: cell-based. The method, boiled down: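 Agonist EC50 came from nonlinear regression over 12 concentrations (30 μM–100 pM), with % stimulation at 10 μM where no EC50 was obtained. Cells: stable HEK293 with mutant human GPR119 (T327A/S329A), 20 min compound at 37° C; cAMP read by LANCE kit with standard curve.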
A general note: Cyclic AMP is a second messenger, typically raised through Gs and lowered through Gi signalling.
With `Cc1cccnc1N1CCC(=NOC2CCN(C(=O)OC(C)C)CC2)CC1` [Example 2-7], the activation at 10 µM is 55%.

The assay is the same for the next values; noted with them: cAMP accumulation, HEK293 cells stably expressing mutant human GPR119; read-out: EC50.
Consider `CC(C)OC(=O)N1CCC(ON=C2CCN(c3ncnc4ccsc34)CC2)CC1` [Example 2-15], for which the EC50 was 4780 nM. On the same count and under the same terms, for `Cc1cc(N2CCC(=NOC3CCN(C(=O)OC(C)C)CC3)CC2)ccn1` [Example 2-6] the value was 1480 nM; for `CC(C)OC(=O)N1CCC(ON=C2CCN(c3nccc(Cl)n3)CC2)CC1` [Example 2-47], 2010 nM. Turning to `CC(C)OC(=O)N1CCC(ON=C2CCN(c3cc(F)c(CSCC(=O)O)cc3F)CC2)CC1` [Example 13-2], the EC50 is 2410 nM. Regarding `COc1ccc(-c2cc(F)c(N3CCC(=NOC4CCN(C(=O)OC(C)C)CC4)CC3)cc2F)cn1` [Example 27-33], the EC50 was 891 nM. As to `CC(C)OC(=O)N1CCC(ON=C2CCN(c3cc(F)c(C(=O)NCC(=O)O)cc3F)CC2)CC1` [Example 30-1, 4-{1-[4-(Carboxymethyl-carbamoyl)-2,5-difluoro-phenyl]-piperidin-4-ylideneaminooxy}-piperidine-1-carboxylic acid isopropyl ester], the EC50 worked out at 1130 nM. Take `CC(C)OC(=O)N1CCC(ON=C2CCN(c3cc(F)c(-c4ncccn4)cc3F)CC2)CC1` [Example 27-20]: the EC50 came to 272 nM. For the compound `CC(C)OC(=O)N1CCC(ON=C2CCN(c3ccc(C=O)c(O)c3)CC2)CC1` [Example 2-30], the EC50 is over 10000 nM. In the case of `Cc1ccc(-c2cc(F)c(N3CCC(=NOC4CCN(C(=O)OC(C)C)CC4)CC3)cc2F)cn1` [Example 27-30], the EC50 stood at 435 nM.

On to `CC(C)OC(=O)N1CCC(ON=C2CCN(c3cc(F)c(NC(N)=O)cc3F)CC2)CC1` [Example 37-1, 4-[1-(2,5-Difluoro-4-ureido-phenyl)-piperidin-4-ylideneaminooxy]-piperidine-1-carboxylic acid isopropyl ester], for which the EC50 was determined as 71 nM. Regarding `CC(C)OC(=O)N1CCC(ON=C2CCN(c3cc(F)c(-n4ccnc4)cc3F)CC2)CC1` [Example 22-1, 4-[1-(2,5-Difluoro-4-imidazol-1-yl-phenyl)-piperidin-4-ylideneaminooxy]-piperidine-1-carboxylic acid isopropyl ester], the EC50 was found to be 435 nM. For the compound `CC(C)OC(=O)N1CCC(ON=C2CCN(c3cc(F)c(CNS(=O)(=O)C(C)C)cc3F)CC2)CC1` [Example 16-5], the EC50 was determined as 142 nM. Consider `CC(C)OC(=O)N1CCC(ON=C2CCN(c3cc(F)c([S+](C)[O-])cc3F)CC2)CC1` (centres unmarked) [Example 43-1, 4-[1-(2,5-Difluoro-4-methanesulfinyl-phenyl)-piperidin-4-ylideneaminooxy]-piperidine-1-carboxylic acid isopropyl ester], for which the EC50 was determined as 58 nM. Take `CC(C)OC(=O)N1CCC(ON=C2CCN(c3cc(F)c(C(=O)NCCN)cc3F)CC2)CC1` [Example 31-2]: the EC50 was 348 nM.

As for `COc1nc(N2CCC(=NOC3CCN(C(=O)OC(C)C)CC3)CC2)ncc1Br` [Example 2-56], the EC50 was over 10000 nM. Take `CC(C)OC(=O)N1CCC(ON=C2CCN(c3cc(F)c(C(N)=O)cc3F)CC2)CC1` [Example 2-32]: the EC50 came to 25 nM. `CCOC(=O)c1cnn(Cc2cc(F)c(N3CCC(=NOC4CCN(C(=O)OC(C)C)CC4)CC3)cc2F)c1` [Example 14-11]: the EC50 was 190 nM.

The assay is the same for the next values; noted with them: the 15th table; read-out: EC50.
In the case of `CC(C)OC(=O)N1CCC(ON=C2CCN(c3cc(F)c(C(=O)NCCN(C)C)cc3F)CC2)CC1` [Example 29-2], the EC50 was 450 nM.

For `CC(C)OC(=O)N1CCC(ON=C2CCN(c3cc(F)c(C(=O)NCCCO)cc3F)CC2)CC1` [Example 29-9], the EC50 was 94 nM. For `CC(C)OC(=O)N1CCC(ON=C2CCN(c3cc(F)c(C(=O)NCCN)cc3F)CC2)CC1` [Example 29-6], the EC50 was 381 nM. Turning to `CC(C)OC(=O)N1CCC(ON=C2CCN(c3cc(F)c(C(=O)N(C)C)cc3F)CC2)CC1` [Example 29-1, 4-[1-(4-Dimethylcarbamoyl-2,5-difluoro-phenyl)-piperidin-4-ylideneaminooxy]-piperidine-1-carboxylic acid isopropyl ester], the EC50 stood at 129 nM.

The same assay, now with this note: the 19th table; unit inferred; read-out: EC 50.
In the case of `CCc1cnc(N2CCC(ON=C3CCN(c4cc(F)c(C(=O)NCC5CCNC5)cc4F)CC3)CC2)nc1` (centres unmarked) [Example 29-90], the EC50 is 67 nM. For `CCc1cnc(N2CCC(ON=C3CCN(c4cc(F)c(C(=O)NCC5CCNCC5)cc4F)CC3)CC2)nc1` [Example 29-128], the EC50 worked out at 70 nM.

Turning to `CCc1cnc(N2CCC(ON=C3CCN(c4cc(F)c(C(=O)NCC5CCCN5C)cc4F)CC3)CC2)nc1` (centres unmarked) [Example 29-138], the EC50 was found to be 185 nM.

Still in this assay, the particulars now being: the 29th table; read-out: EC50.
As for `CC(C)OC(=O)N1CCC(ON=C2CCN(c3ccc(CO)c(F)c3)CC2)CC1` [Example 52-1, 4-[1-(3-Fluoro-4-hydroxymethyl-phenyl)-piperidin-4-ylideneaminooxy]-piperidine-1-carboxylic acid isopropyl ester], the EC50 was over 10000 nM.

The same assay, now with this note: the 31st table; read-out: EC50.
Regarding `CC(C)OC(=O)N1CCC(ON=C2CN(c3ccc(S(C)(=O)=O)cc3F)C2)CC1` [Example 61-3], the EC50 came to 161 nM.

The assay is the same for the next values; noted with them: the 32nd table; read-out: EC50.
`CS(=O)(=O)c1ccc(N2CCC(=NOC3CCN(c4ccnc(Cl)n4)CC3)CC2)c(F)c1` [Example 63-5]: the EC50 is over 10000 nM. As for `Cc1cc(C)nc(N2CCC(ON=C3CCN(c4ccc(S(C)(=O)=O)cc4F)CC3)CC2)n1` [Example 63-18], the EC50 is over 10000 nM.

The assay is the same for the next values; noted with them: the 33rd table; read-out: EC50.
With `CCC(CC)COC(=O)N1CCC(ON=C2CCN(c3ccc(S(C)(=O)=O)cc3F)CC2)CC1` [Example 64-49], the EC50 worked out at 54 nM. In the case of `CS(=O)(=O)c1ccc(N2CCC(=NOC3CCN(C(=O)OCc4ccccn4)CC3)CC2)c(F)c1` [Example 64-17], the EC50 was determined as 1070 nM. The same measure, in the same setting: for `CN1CCCC1CCOC(=O)N1CCC(ON=C2CCN(c3ccc(S(C)(=O)=O)cc3F)CC2)CC1` (centres unmarked) [Example 64-27] the value was over 10000 nM; for `CS(=O)(=O)c1ccc(N2CCC(=NOC3CCN(C(=O)OCC4CCC4)CC3)CC2)c(F)c1` [Example 64-6], 36 nM; for `CCOC(=O)C1CC1COC(=O)N1CCC(ON=C2CCN(c3ccc(S(C)(=O)=O)cc3F)CC2)CC1` (centres unmarked) [Example 64-31], 107 nM.

The assay is the same for the next values; noted with them: the 34th table, compounds 65-1 to 65-24; read-out: EC50.
As to `CC(C)(C)NC(=O)N1CCC(ON=C2CCN(c3ccc(S(C)(=O)=O)cc3F)CC2)CC1` [Example 65-11], the EC50 was 1040 nM.

As to `CC(C)COC(=O)N1CCC(ON=C2CCN(c3ccc(S(C)(=O)=O)cc3F)CC2)CC1` [Example 65-13], the EC50 came out at 82 nM.

Still in this assay, the particulars now being: the 36th table, compounds 66-1 to 66-51; read-out: EC50.
For `CS(=O)(=O)c1ccc(N2CCC(=NOC3CCN(Cc4ccc(Cl)cc4)CC3)CC2)c(F)c1` [Example 66-28], the EC50 was determined as 363 nM. With `Cn1cc(Cl)c(CN2CCC(ON=C3CCN(c4ccc(S(C)(=O)=O)cc4F)CC3)CC2)n1` [Example 66-5], the EC50 was over 10000 nM. With `Cc1cc(CN2CCC(ON=C3CCN(c4ccc(S(C)(=O)=O)cc4F)CC3)CC2)n(C)n1` [Example 66-13], the EC50 is over 10000 nM.

Still in this assay, the particulars now being: the 37th table, compounds 66-52 to 66-64; read-out: EC50.
With `CCc1ccc([C@@H](C)N2CCC(ON=C3CCN(c4cc(F)c(S(C)(=O)=O)cc4F)CC3)CC2)cc1` [Example 66-64], the EC50 is over 10000 nM.

The same assay, now with this note: the 38th table, compounds 66-65 to 66-72; read-out: EC50.
For the compound `CNC(=O)c1cc(F)c(N2CCC(=NOC3CCN(Cc4ccc(C(F)(F)F)cc4)CC3)CC2)cc1F` [Example 66-67], the EC50 turned out to be 155 nM. On to `CNC(=O)c1cc(F)c(N2CCC(=NOC3CCN(Cc4ccc(Cl)cc4)CC3)CC2)cc1F` [Example 66-68], for which the EC50 came out at 365 nM.

Staying with this assay, now noted: the 43rd table, compounds 75-1 to 75-38; read-out: EC50.
Consider `CC(C)OC(=O)N1CCC(ON=C2CCN(c3cc(F)c(CC(=O)NC4CCCNC4)cc3F)CC2)CC1` (centres unmarked) [Example 75-16], for which the EC50 came to 122 nM. With `CC(C)OC(=O)N1CCC(ON=C2CCN(c3cc(F)c(CC(=O)NCC4CCNCC4)cc3F)CC2)CC1` [Example 75-26], the EC50 was found to be 236 nM. Regarding `CC(C)OC(=O)N1CCC(ON=C2CCN(c3cc(F)c(CC(=O)NCC4CCNC4)cc3F)CC2)CC1` (centres unmarked) [Example 75-27], the EC50 amounted to 797 nM. `CC(C)OC(=O)N1CCC(ON=C2CCN(c3cc(F)c(CC(=O)N4CCCC(CN)C4)cc3F)CC2)CC1` (centres unmarked) [Example 75-22]: the EC50 amounted to 108 nM. For the compound `CC(C)OC(=O)N1CCC(ON=C2CCN(c3cc(F)c(CC(=O)NC[C@@H]4CCCN4)cc3F)CC2)CC1` [Example 75-10], the EC50 was 203 nM. Turning to `CC(C)OC(=O)N1CCC(ON=C2CCN(c3cc(F)c(CC(=O)NCCN(C)C)cc3F)CC2)CC1` [Example 75-1, 4-(1-{4-[(2-dimethylamino-ethylcarbamoyl)-methyl]-2,5-difluoro-phenyl}-piperidin-4-ylideneaminooxy)-piperidine-1-carboxylic acid isopropyl ester], the EC50 worked out at 254 nM.

Staying with this assay, now noted: the 44th table, compounds 77-1 to 77-14; read-out: EC50.
In the case of `CCc1cnc(N2CCC(ON=C3CCN(c4cc(F)c(CC(=O)N5CCNCC5)cc4F)CC3)CC2)nc1` [Example 77-13], the EC50 turned out to be 39 nM.

Consider `CCc1cnc(N2CCC(ON=C3CCN(c4cc(F)c(CC(=O)N5CC[C@H](N(C)C)C5)cc4F)CC3)CC2)nc1` [Example 77-5], for which the EC50 turned out to be 6 nM.
